Data taken from PubChem BioAssay AID1963442 (Molecular Pharmacology Branch, DTP, NCI, 2024).
pIC50: −log10 of the molar value. Values joined by “and” are separate entries in the source; they are usually repeats but may differ in a detail not shown here. Equal values may be shown once.

Test system: MPNST complex spheroid with HUVEC/MSC, growth, % test/control
Assay: Anticancer human tumor MPNST cell line growth inhibition [Asc];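 further: compounds left on spheroids for seven days before reading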
Details: for viability, T/C: stronger effect = lower value
Protocol: Multicellular complex tumor spheroid response to apoptosis pathway targeting inhibitors Alrizomadlin, Pelcitoclax, and Dasminapant in combination with a variety of drugs and investigational agents in selected tumor cell lines
The MDM2 inhibitor alrizomadlin, the Bcl-2/Bcl-xL inhibitor pelcitoclax, and the IAPs inhibitor dasminapant were evaluated both individually and in combination with standard of care and investigational anticancer small molecules within a complex spheroid model of solid tumors. . Complex spheroids include a stromal component modeled by human endothelial cells (HUVEC) and fibroblasts modeled by human mesenchymal stem cells (MSCs). The concentration ranges selected for each drug and investigational agent were based upon clinically achievable concentrations if the clinical Cmax of the agent was known.
Compounds. The drugs and investigational agents: alrizomadlin (APG-115; NSC831270), pelcitoclax (APG-1252; NSC835773), dasminapant (APG-1387;NSC834197), TAK-243 (NSC785004), copanlisib (NSC809693), olaparib (NSC753686), talazoparib (NSC767125), cobimetinib (NSC 768068), eltanexor (KPT-8602, NSC 794443), abemaciclib (NSC 768073), sotorasib (NSC818433), adagrasib (NSC 831453), MRTX-1133 (NSC 836407), Iadademestat (ORY1001, NSC 806812), and RMC-4630 (NSC839698), were obtained from the NCI Developmental Therapeutics Program Chemical Repository. The FDA-approved anticancer drug set is available from the Developmental Therapeutics Program at https://dtp.cancer.gov/organization/dscb/obtaining/available plates.htm. […] The stock solutions were prepared in dimethyl sulfoxide (DMSO, Sigma-Aldrich, St. Louis, MO, cat. D2650) at 800-fold the tested concentration and stored at -70 degrees C prior to their use. All drugs and investigational agents were tested over a range starting from a high concentration at or near the clinical Cmax and decreasing in half-log increments. If the clinical Cmax for an agent had not been determined, the highest concentration tested was 10 microM.
The patient-derived cancer (PDC) cell lines include five colon adenocarcinomas: 186277-243-T-J2-PDC, 616215-338-R-J1-PDC, 439559-082-T-J2-PDC, 463943-066-T-J2-PDC, and 519858-162-T-J1-PDC; three pancreatic carcinomas: 323965-272-R-J2-PDC, 521955-158-R6-J3-PDC, and 521955-158-R2-J5-PDC; two uterine sarcomas: 327498-152-R-J2-PDC and 993429-296-R-J1-PDC; two rhabdomyosarcomas: 755483-174-R-J1-PDC and 772245-204-R-J1-PDC; two soft tissue sarcomas: 126254-015-R-J1-PDC and 494315-158-R-J1-PDC; two malignant fibrous histiocytomas: 317291-083-R-J1-PDC and 596521-263-R-J1-PDC; two breast carcinomas: 171881-019-R-J1-PDC and 885512-296-R-J2-PDC; and one ovarian carcinoma: 6556581-035-R-J-PDC were obtained from the NCI PDMR, (https://pdmr.cancer.gov). The established cell lines HSSY-2 synovial sarcoma (RRID:CVCL 8719), SYO-1 synovial sarcoma (RRID:CVCL_7146), MPNST malignant peripheral neural sheath tumor were obtained from the Sloan Kettering Institute. The following established cell lines were purchased from the American Type Culture Collection (ATCC, Manassas, VA), Sor the received from the NCI repository:, PANC-1 pancreatic carcinoma (CRL-1469, RRID:CVCL_0480), OVCAR-5 ovarian carcinoma (RRID:CVCL_1628), OVCAR-8 ovarian carcinoma (RRID:CVCL_1629), , MCF-7 breast carcinoma (CRL-12584, RRID:CVCL_0031), MDA-MB-231 breast carcinoma (CRL-12532, RRID:CVCL_0062), NCI-H1876 small cell lung carcinoma (CRL-5902, RRID:CVCL_1503), NCI-H510A small cell lung carcinoma (HTB-184, RRID:CVCL_1565), NCI-H1417 (CRL-5869, RRID:CVCL_1469), and NCI-H196 small cell lung carcinoma (CRL-5823, RRID:CVCL_1509). Dr. Peter Houghton (Greehey Children's Cancer Research Institute, University of Texas Health Science Center, San Antonio, TX) provided Rh-18 rhabdomyosarcoma (RRID:CVCL_1659). Pooled donor human umbilical vein endothelial cells (HUVEC, Lonza, cat. CC-2519) and human mesenchymal stem cells (hMSC, Lonza, cat. PT-2501) were purchased from Lonza (Walkersville, MD).
Cell Culture. […]

[1] = curve of first compound, second compound 0.1 µM
[2] = curve of first compound, second compound 0.316 µM
[3] = curve of first compound, second compound 1 µM
[4] = curve of first compound, second compound 3.16 µM
[5] = curve of first compound, second compound 10 µM
[6] = second compound 0.1 µM, first compound 0.0316 µM
[7] = second compound 0.1 µM, first compound 0.1 µM
[8] = second compound 0.1 µM, first compound 0.316 µM
[9] = second compound 0.1 µM, first compound 1 µM
[10] = second compound 0.316 µM, first compound 0.0316 µM
[11] = second compound 0.316 µM, first compound 0.1 µM
[12] = second compound 0.316 µM, first compound 0.316 µM
[13] = second compound 0.316 µM, first compound 1 µM
[14] = second compound 1 µM, first compound 0.0316 µM
[15] = second compound 1 µM, first compound 0.1 µM
[16] = second compound 1 µM, first compound 0.316 µM
[17] = second compound 1 µM, first compound 1 µM
[18] = second compound 3.16 µM, first compound 0.0316 µM
[19] = second compound 3.16 µM, first compound 0.1 µM
[20] = second compound 3.16 µM, first compound 0.316 µM
[21] = second compound 3.16 µM, first compound 1 µM
[22] = second compound 10 µM, first compound 0.0316 µM
[23] = second compound 10 µM, first compound 0.1 µM
[24] = second compound 10 µM, first compound 0.316 µM
[25] = second compound 10 µM, first compound 1 µM

`C#Cc1c(F)ccc2cc(O)cc(-c3ncc4c(N5CC6CCC(C5)N6)nc(OCC56CCCN5CC(F)C6)nc4c3F)c12` (centres undefined) was tested, and the viability, T/C (compound 0.0316 µM) was 76.6% and 93.8% and 88.8%, the viability, T/C (compound 0.1 µM) was 87% and 113% and 69.2% and the viability, T/C (compound 0.316 µM) was 74.9% and 107% and 83.5%. For the same compound, the viability, T/C (compound 1 µM) was 61.2% and 94.7% and 70.7%, the viability, T/C (compound 3.16 µM) was 88% and 93.3% and 87.2% and the viability, T/C (compound 10 µM) was 50% and 97.8% and 110%. The pIC50 (curve of compound) was < 5.00.

For `O=C(c1cc(Cc2n[nH]c(=O)c3ccccc23)ccc1F)N1CCN(C(=O)C2CC2)CC1` + Cc1c(S(C)(=O)=O)c(-c2cc(F)cc(N3CCN(c4ccc(NS(=O)(=O)c5ccc(NC(CCN6CCC(C(=O)OCCCP(=O)(O)O)CC6)CSc6ccccc6)c(S(=O)(=O)C(F)(F)F)c5)cc4)CC3)c2)c(-c2ccc(Cl)cc2)n1C(C)C, the pIC50 [1] was < 5.00, the pIC50 [2] was < 5.00 and the pIC50 [3] was 5.01. For the same compound, the pIC50 [4] was < 5.00, the pIC50 [5] was < 5.00 and the viability, T/C [6] was 81.9%. For the same compound, the viability, T/C [7] was 59.6%, the viability, T/C [8] was 68.3% and the viability, T/C [9] was 64.5%. For the same compound, the viability, T/C (second compound 0.1 µM, first compound 3.16 µM) was 81.1%, the viability, T/C (second compound 0.1 µM, first compound 10 µM) was 64.5% and the viability, T/C [10] was 70.9%. For the same compound, the viability, T/C [11] was 67.1%, the viability, T/C [12] was 56.8% and the viability, T/C [13] was 69.5%. For the same compound, the viability, T/C (second compound 0.316 µM, first compound 3.16 µM) was 60.8%, the viability, T/C (second compound 0.316 µM, first compound 10 µM) was 49.8% and the viability, T/C [14] was 58.5%. It also gave a viability, T/C [15] of 78.6%, a viability, T/C [16] of 65.6% and a viability, T/C [17] of 79.7%. It also gave a viability, T/C (second compound 1 µM, first compound 3.16 µM) of 72.6%, a viability, T/C (second compound 1 µM, first compound 10 µM) of 49.7% and a viability, T/C [18] of 101%. The viability, T/C [19] was 72.9%, the viability, T/C [20] was 77.1% and the viability, T/C [21] was 64%. The viability, T/C (second compound 3.16 µM, first compound 3.16 µM) was 58.8%, the viability, T/C (second compound 3.16 µM, first compound 10 µM) was 51.5% and the viability, T/C [22] was 75%. The viability, T/C [23] was 85.8%, the viability, T/C [24] was 76.9% and the viability, T/C [25] was 62.5%. The viability, T/C (second compound 10 µM, first compound 3.16 µM) was 68.9% and the viability, T/C (second compound 10 µM, first compound 10 µM) was 49%.

`Cc1nc(N2CCC3(CC2)COC(C)C3N)c(CO)nc1Sc1ccnc(N)c1Cl` (centres undefined) was tested, and the viability, T/C (compound 0.00949 µM) was 64.8% and 95.2% and 81.6%, the viability, T/C (compound 0.03 µM) was 69.3% and 115% and 93.2% and the viability, T/C (compound 0.0949 µM) was 81% and 125% and 89.5%. For the same compound, the viability, T/C (compound 0.3 µM) was 48.4% and 109% and 92%, the viability, T/C (compound 0.949 µM) was 55.7% and 115% and 93.5% and the viability, T/C (compound 3 µM) was 18.5% and 86.6% and 80.5%. The pIC50 (curve of compound) was 6.02 and < 5.52.

`COc1c(OCCCN2CCOCC2)ccc2c3n(c(=NC(=O)c4cnc(N)nc4)nc12)CCN3` + Cc1c(S(C)(=O)=O)c(-c2cc(F)cc(N3CCN(c4ccc(NS(=O)(=O)c5ccc(NC(CCN6CCC(C(=O)OCCCP(=O)(O)O)CC6)CSc6ccccc6)c(S(=O)(=O)C(F)(F)F)c5)cc4)CC3)c2)c(-c2ccc(Cl)cc2)n1C(C)C gave a pIC50 [1] of 7.17, a pIC50 [2] of 7.30 and a pIC50 [3] of 7.20. The pIC50 [4] was 7.50, the pIC50 [5] was 7.53 and the viability, T/C (second compound 0.1 µM, first compound 0.00316 µM) was 60.5%. It also gave a viability, T/C (second compound 0.1 µM, first compound 0.01 µM) of 71.7%, a viability, T/C [6] of 62.3% and a viability, T/C [7] of 41.8%. The viability, T/C [8] was 30.4%, the viability, T/C [9] was 18.6% and the viability, T/C (second compound 0.316 µM, first compound 0.00316 µM) was 72.6%. It also gave a viability, T/C (second compound 0.316 µM, first compound 0.01 µM) of 62.3%, a viability, T/C [10] of 61.7% and a viability, T/C [11] of 35%. The viability, T/C [12] was 23.8%, the viability, T/C [13] was 16.8% and the viability, T/C (second compound 1 µM, first compound 0.00316 µM) was 75.9%. It also gave a viability, T/C (second compound 1 µM, first compound 0.01 µM) of 77.1%, a viability, T/C [14] of 62.4% and a viability, T/C [15] of 40.1%. For the same compound, the viability, T/C [16] was 25.2%, the viability, T/C [17] was 14.4% and the viability, T/C (second compound 3.16 µM, first compound 0.00316 µM) was 79.3%. The viability, T/C (second compound 3.16 µM, first compound 0.01 µM) was 69.5%, the viability, T/C [18] was 49.7% and the viability, T/C [19] was 31.1%. The viability, T/C [20] was 18.9%, the viability, T/C [21] was 16.8% and the viability, T/C (second compound 10 µM, first compound 0.00316 µM) was 90.1%. The viability, T/C (second compound 10 µM, first compound 0.01 µM) was 71.8%, the viability, T/C [22] was 48.5% and the viability, T/C [23] was 27.5%. The viability, T/C [24] was 18.3% and the viability, T/C [25] was 8.75%.
